Experimental data from ChEMBL document CHEMBL1201862, “PubChem BioAssay data set” (2004).
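A five-concentration, 48-hour dose response in 96-well plates underlies each endpoint, interpolated linearly between surrounding concentrations. GI50 = concentration required for 50% inhibition of growth.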 Activity calls are given as the source filed them. Rule as the data show it: active = GI50 up to about 1.1 µM and inactive = higher.

Legend:
Experiment in all cases: NCI-60 cell line screen, 48 h
786-0 = test system: 786-0
DU-145 = test system: DU-145
HOP-62 = test system: HOP-62
HT-29 = test system: HT-29
M14 = test system: M14
MDA-MB-231 = test system: MDA-MB-231
MDA-MB-435 = test system: MDA-MB-435
MDA-N = test system: MDA-N
MOLT-4 = test system: MOLT-4
Malme-3M = test system: Malme-3M
NCI-H23 = test system: NCI-H23
OVCAR-5 = test system: OVCAR-5
OVCAR-8 = test system: OVCAR-8
RPMI-8226 = test system: RPMI-8226
RXF 393 = test system: RXF 393
SF-539 = test system: SF-539
SK-MEL-28 = test system: SK-MEL-28
SK-OV-3 = test system: SK-OV-3
SNB-19 = test system: SNB-19
UO-31 = test system: UO-31

Measured: GI50

CC(=O)Nc1cc([As](=O)(O)O)ccc1O [ACETARSONE]
inactive: 786-0 > 100 µM | DU-145 > 100 µM | HOP-62 > 100 µM | HT-29 > 100 µM | M14 > 100 µM | MDA-MB-231 > 100 µM | MDA-MB-435 > 100 µM | MDA-N > 100 µM | MOLT-4 > 100 µM | Malme-3M > 100 µM | NCI-H23 > 100 µM | OVCAR-5 > 100 µM | OVCAR-8 > 100 µM | RPMI-8226 > 100 µM | RXF 393 > 100 µM | SF-539 > 100 µM | SK-MEL-28 > 100 µM | SK-OV-3 > 100 µM | SNB-19 > 100 µM | UO-31 > 100 µM
